As usually defined, the melting point is the temperature, or range, at which the solid turns liquid. Usually IC50 stands for the concentration that gives 50% inhibition. A word on the inhibition: it is the relative decrease from the control value, in per cent.

Data on nine molecules can be found in US20090105278A1, “Selective inhibitors of human corticosteroid syntheses” (Universitat Des Saarlandes, priority 2004, published 2009).

The target of one data set is T1, human placental CYP19 (Homo sapiens, UniProt P11511).
T1 construct: The enzyme was obtained from the microsome fraction of fresh human placenta; from tissue; host or cells: human placenta, microsomal fraction
T1 sequence (P11511 1-503): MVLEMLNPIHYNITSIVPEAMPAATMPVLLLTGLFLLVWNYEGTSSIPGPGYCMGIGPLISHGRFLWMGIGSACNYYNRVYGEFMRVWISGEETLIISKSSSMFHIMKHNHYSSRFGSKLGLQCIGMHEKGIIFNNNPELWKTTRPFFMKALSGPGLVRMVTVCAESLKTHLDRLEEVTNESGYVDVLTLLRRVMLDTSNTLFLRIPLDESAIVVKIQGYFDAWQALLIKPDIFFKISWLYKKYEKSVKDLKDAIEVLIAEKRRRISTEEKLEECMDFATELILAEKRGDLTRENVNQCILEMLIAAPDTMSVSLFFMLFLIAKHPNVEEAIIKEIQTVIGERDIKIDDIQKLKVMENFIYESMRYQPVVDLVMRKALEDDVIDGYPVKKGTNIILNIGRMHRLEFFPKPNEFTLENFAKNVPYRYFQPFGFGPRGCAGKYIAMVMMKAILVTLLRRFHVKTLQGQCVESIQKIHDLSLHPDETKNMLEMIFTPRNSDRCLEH
Nature of the data set: IC50 of CYP19 (human placental microsomes). The class given is biochemical. To be noted: human placental CYP19; testosterone substrate 2.5 μM. The method, then: The isolated microsomes were suspended in a minimum volume of phosphate buffer (0.05 M; pH 7.4; […]). In addition, DTT (10 mM) and EDTA (1 mM) were added to protect the enzyme from degradation reactions.
[…] […] The compounds to be tested were dissolved in DMSO and diluted with buffer to the desired concentration. The final DMSO concentration of the control and inhibitor incubations was about 20%. Each vessel was preincubated in a water bath at 30° C. for 5 min. The reaction was started by adding the microsomal protein (0.1 mg). The total volume of each mixture was 200 μl. After 14 min, the reaction was quenched by adding 200 μl of ice cold 1 mM HgCl2 solution. Two hundred microliters of a 2% aqueous suspension of dextran-coated charcoal, DCC) was added for absorbing the steroids, and the vessels were shaken for 20 min. Thereafter, the charcoal was centrifuged off at 1500 g for 5 min. The radioactive water present in the supernatant (^3H2O) was assayed by scintillation measurement using an LKB-Wallac beta counter. The calculation of the IC50 values was effected by a semilogarithmic plot of the percent inhibition against the inhibitor concentration.

The target of the next data set is T2, human CYP17 (Homo sapiens, UniProt P05093).
T2 construct: made in house; host or cells: E. coli pJL17/OR (membrane fraction)
T2 sequence (P05093 1-508): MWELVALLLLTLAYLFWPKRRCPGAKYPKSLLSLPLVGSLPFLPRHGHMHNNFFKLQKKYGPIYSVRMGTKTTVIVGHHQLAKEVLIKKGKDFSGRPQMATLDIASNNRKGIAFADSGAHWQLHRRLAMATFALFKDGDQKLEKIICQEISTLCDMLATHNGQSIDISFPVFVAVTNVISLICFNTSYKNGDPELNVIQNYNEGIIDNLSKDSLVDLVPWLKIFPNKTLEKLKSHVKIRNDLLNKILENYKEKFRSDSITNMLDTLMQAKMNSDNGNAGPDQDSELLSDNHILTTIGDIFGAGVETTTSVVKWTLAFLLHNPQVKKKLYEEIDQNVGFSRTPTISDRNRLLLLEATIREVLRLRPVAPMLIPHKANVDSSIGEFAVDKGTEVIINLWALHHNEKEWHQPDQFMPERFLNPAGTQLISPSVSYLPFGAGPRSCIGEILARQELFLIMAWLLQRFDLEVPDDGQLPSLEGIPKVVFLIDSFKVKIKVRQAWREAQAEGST
Nature of the data set: Percent inhibition of CYP17 (membrane fraction of E. coli pJL17/OR). The class given is biochemical. As to conditions: E. coli which expresses human CYP17; 5 mg/ml protein; progesterone substrate 2.5 μM; inhibitor 2.5 μM; read-out: % Inhibition human CYP17. Here is the method:
The recombinantly altered E. coli strain pJL17/OR, in which human CYP17 and rat NADPH-P450-reductase were coexpressed, was grown and stored according to the method of Ehmer et al. (Ehmer, P. B. et al., J. Steroid Biochem. Mol. Biol. 75: 57-63 (2000)). For isolating the membrane fraction, 5 ml of the bacterial cell suspension with an OD578 of 50 was washed with phosphate buffer (0.05 M; pH 7.4; 1 mM MgCl2; 0.1 mM EDTA and 0.1 mM DTT). The bacteria were removed by centrifugation and resuspended in 10 ml of ice cold TES buffer (0.1 M tris-acetate; pH 7.8; 0.5 mM EDTA; 0.5 M sucrose). Four milligrams of lysozyme in 10 ml of ice cold water was added to obtain a final concentration of 0.2 mg/ml. This was followed by incubation for 30 minutes under continued shaking on ice. The spheroblasts were obtained by a renewed centrifugation step at 12,000 g for 10 min and again resuspended in 3 ml of ice cold phosphate buffer (composition see above, additionally 0.5 mM PMSF).
After freezing and thawing, the cells were lysed on ice with an ultrasonic disintegrator. The whole cells and the cell debris were centrifuged off at 3000 g for 7 min. The supernatant was again centrifuged at 50,000 g for 20 min at 4° C. A membrane pellet sedimented and was resuspended in 2 ml of phosphate buffer (composition see above) with […] by means of an Ultra-Turrax mixer. […] Aliquots with an approximate protein concentration of 5 mg/ml were stored at −70° C. until use.
Control incubations were performed in parallel with 5 μl DMSO without urea. The reaction was started by adding 50 μl of a membrane suspension diluted 1 to 5 in phosphate buffer (0.8 to 1 mg of protein per ml). After thoroughly mixing the components, the mixture was incubated at 37° C. for 30 min.
The steroids were extracted with 1 ml of EtOAc. […] After the centrifugation, 800 μl of the organic phase was removed, placed into a new vessel and evaporated to dryness. The samples were dissolved in 50 μl of a water-methanol mixture (1:1) and analyzed by HPLC. The substrate conversion was calculated from the ratio of the areas of the product peaks (17α-hydroxyprogesterone and 16α-hydroxyprogesterone) to that of the substrate peak. The activity of the inhibitors was calculated from the reduced substrate conversion after the addition of inhibitors in accordance with the following formula: […]

Data set [1] concerns the target T3, human CYP11B2 (Homo sapiens, UniProt P19099).
T3 sequence (P19099 25-503): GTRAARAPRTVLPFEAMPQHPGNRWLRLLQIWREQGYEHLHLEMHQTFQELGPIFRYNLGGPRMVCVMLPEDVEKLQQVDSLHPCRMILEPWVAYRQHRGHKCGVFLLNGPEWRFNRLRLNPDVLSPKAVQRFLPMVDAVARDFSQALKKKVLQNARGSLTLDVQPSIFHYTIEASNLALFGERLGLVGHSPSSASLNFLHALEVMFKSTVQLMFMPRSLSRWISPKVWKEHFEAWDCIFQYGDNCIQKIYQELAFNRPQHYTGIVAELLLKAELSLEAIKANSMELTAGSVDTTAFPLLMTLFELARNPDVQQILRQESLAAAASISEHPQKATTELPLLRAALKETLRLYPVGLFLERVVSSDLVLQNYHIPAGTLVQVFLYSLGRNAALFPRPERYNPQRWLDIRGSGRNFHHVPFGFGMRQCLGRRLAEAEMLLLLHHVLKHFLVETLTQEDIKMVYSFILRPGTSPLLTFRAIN
The data set can be described thus: Screening test in transgenic fission yeast (S. pombe PE1) expressing human CYP11B2. The format is cell-based. Set-up: expressed in transfected cells. To be noted: S. pombe cells which express human CYP11B2, deoxycorticosterone substrate 100 nM, inhibitor 500 nM. The method, then:
492.5 μl of this cell suspension was admixed with 5 μl of inhibitor solution (50 μM of the compound to be tested in ethanol or DMSO) and incubated at 32° C. for 15 min. Controls were admixed with 5 μl of ethanol. […] The test was quenched by extracting the sample with 500 μl of EtOAc. After centrifugation (10,000 g, 2 min), the EtOAc phase was removed and evaporated to dryness. […] The reaction of the substrate to form corticosterone was analyzed by HPTLC (see below).
The quantification of the spots for the substrate deoxycorticosterone and the products corticosterone (and, if detectable, 18-hydroxycorticosterone and aldosterone) was effected with the related evaluation program AIDA. […] The calculation of the conversion rate was effected according to equation 1.
(§1) The plate was developed twice with the mobile solvent chloroform:methanol:water (300:20:1). Unlabeled 11-deoxycorticosterone and corticosterone were applied as a reference for the CYP11B1 reaction. For the CYP11B2 reaction, 11-deoxycorticosterone, corticosterone, 18-hydroxycorticosterone and aldosterone were used as references. The detection of the unlabeled references was effected at 260 nm. Subsequently, imaging plates (BAS MS2340, for ^14C samples, Raytest, Straubenhardt, Germany) were exposed to the HPTLC plates for 48 h. The imaging plates were scanned with the phosphoimager system Fuji FLA 3000 (Raytest, Straubenhardt, Germany), and the steroids were quantified.

In the next data set the target is T4, human CYP11B1 (Homo sapiens, UniProt P15538).
T4 construct: expressed in transfected cells; host or cells: V79 MZh11B1 (Chinese hamster lung fibroblasts)
T4 sequence (P15538 25-503): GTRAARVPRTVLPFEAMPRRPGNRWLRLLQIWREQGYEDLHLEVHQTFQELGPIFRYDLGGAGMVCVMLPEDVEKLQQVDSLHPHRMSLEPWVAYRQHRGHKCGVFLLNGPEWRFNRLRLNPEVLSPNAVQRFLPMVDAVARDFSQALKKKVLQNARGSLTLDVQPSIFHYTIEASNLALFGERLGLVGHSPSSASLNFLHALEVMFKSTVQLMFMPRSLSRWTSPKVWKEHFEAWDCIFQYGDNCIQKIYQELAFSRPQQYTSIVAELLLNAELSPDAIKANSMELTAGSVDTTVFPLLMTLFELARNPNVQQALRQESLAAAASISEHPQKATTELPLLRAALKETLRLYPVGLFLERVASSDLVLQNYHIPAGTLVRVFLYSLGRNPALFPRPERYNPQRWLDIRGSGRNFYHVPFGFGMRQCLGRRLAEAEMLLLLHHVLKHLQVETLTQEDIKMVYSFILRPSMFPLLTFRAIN
Nature of the data set: V79 MZh 11B1 cells inhibition test. The class given is cell-based. To be noted: for IC50: hamster fibroblasts which express human CYP11B1, deoxycorticosterone substrate 100 nM, read-out: IC50 V79 11B1 hCYP11B1. The method, then:
(§2) Both cell lines were cultured in DMEM^+ containing […] and the antibiotics penicillin and streptomycin (10%) for protection from bacterial contamination. The cells were passaged every 2-3 days after treatment with trypsin/EDTA because the doubling rate was 1-2 days depending on the number of cells. […] When there was further need, freshly thawed cells were employed.
Thereafter, the plate was stored at 37° C. and […] in a CO2 incubator. […] Controls without inhibitor were treated in the same way. The enzyme reactions were quenched by extracting the supernatant with 500 μl of EtOAc. The samples were centrifuged (10,000 g, 2 min), the solvent was removed and evaporated.
(§3) It was calculated by determining the percent inhibition for at least 3 different inhibitor concentrations, which must all be in the linear range of the sigmoidal IC50 curve (log C/% inhibition).
(§4) The calculation was effected by linear regression. The values determined were used only if they formed a straight line with a reliability of […].
as §1

The target in data set [2] is T3, human CYP11B2. The data set can be described thus: V79 MZh 11B2 cells inhibition test. The format is cell-based. Further details: expressed in transfected cells; host or cells: V79 MZh11B2 (Chinese hamster lung fibroblasts). As to conditions: for IC50: hamster fibroblasts which express human CYP11B2, deoxycorticosterone substrate 100 nM, read-out: IC50 V79 11B2 hCYP11B2. Here is the method: as §2
Thereafter, the plate was stored at 37° C. and […] in a CO2 incubator. The V79 MZh 11B1 cells were incubated for 120 min, and the V79 MZh 11B2 cells were incubated for 40 min. Controls without inhibitor were treated in the same way. The enzyme reactions were quenched by extracting the supernatant with 500 μl of EtOAc. The samples were centrifuged (10,000 g, 2 min), the solvent was removed and evaporated.
For V79 MZh11B2, the conversion rate was obtained in accordance with equation 3: […]
as §3, §4, §1

Where a name gives a salt, the structure may show the parent alone.

In turn, `COc1cc2c(cc1OC)/C(=C/c1cccnc1)CCC2.Cl` yielded a melting point of 197 °C. `COc1cc2c(cc1OC)/C(=C/c1ccncc1)CCC2.Cl`: the melting point stood at 197 °C. Molecule `C(=C1c2ccccc2-c2ccccc21)c1cccnc1.Cl` returned a melting point of 241 °C.

With `Cl.N#Cc1ccc2c(c1)/C(=C/c1cnc[nH]1)CCC2`, the melting point was 217 °C. On the same count and under the same terms, the value for `N#Cc1ccc2c(c1)/C(=C\c1cnc[nH]1)CCC2.O=C(O)C(=O)O` was 197 °C; that for `Fc1ccc2c(c1)CC/C2=C\c1cnc[nH]1` (as salt: chloride) [Compound 47a, 5-[(E)-(5-Fluoro-2,3-dihydro-1H-indene-1-ylidenemethyl]-1H-imidazolium chloride] was 245 °C. With `C(=C1/CCc2ccccc21)/c1ccncc1` [Compound 2a, 4-[(E)-2,3-Dihydro-1H-indane-1-ylidenemethyl]pyridine Oxalate], on human placental CYP19, half-maximal inhibition (IC50) was put at 6700 nM. In addition, the inhibition at 2.5 µM at human CYP17 amounted to 8%. Further, the inhibition at 0.5 µM at human CYP11B2 [1] (read-out: % Inhibition human hCYP11B2) was 55%. As to `C/C(=C1/CCc2ccccc21)c1cccnc1.Cl` [Compound 38a, 3-[(1E)-1-(2,3-Dihydro-1H-indane-1-ylidene)ethyl]pyridine Hydrochloride], the IC50 turned out to be 159 nM on human CYP11B1 and 96.1 nM at human CYP11B2 [2]. On human CYP11B2 [1], the “% Inhibition human hCYP11B2” value is on record as 67%. With `c1cncc(-c2ccc3cccc4c3c2CC4)c1` [Compound 50, 3-(1,2-Dihydroacenaphthylene-3-yl)pyridine], on human CYP11B1 (V79 cells), the “Inhibition of human CYP11B1, in words” value is listed as “very weak inhibition”. For the same molecule, the concentration for half-maximal inhibition (IC50) was 2450 nM at human CYP11B1 and 10 nM on human CYP11B2 [2]. Also, the “Selectivity factor IC50 (CYP11B1)/IC50 (CYP11B2)” value at human CYP11B2 [2] (V79 cells expressing human CYP11B1 or CYP11B2) turned out to be 245.
